Format in all cases: cell-based
Assay [1] addresses T1, human TASK-1 (Homo sapiens, UniProt O14649). Briefly: Washout rate after binding to the human TASK-1 channel, two-electrode voltage clamp in Xenopus laevis oocytes (B-4). Set-up: expressed in transfected cells; host or cells: Xenopus laevis oocytes injected with cRNA transcribed from the pSGEM vector. Particulars: TASK-1 inhibited beforehand by about 40% at the concentration of Table 3 (30-80 nM); restoration of current recorded over at least one hour. The source says:
The washout rate is defined as the washout of a compound according to the invention from the TASK-1 channel in % h^−1, measured by means of electrophysiological analysis on TASK-1-expressing Xenopus laevis oocytes via the two-electrode voltage clamp technique according to the description in section B-4.
B-4. In Vitro Electrophysiological Analysis of the Washout Rate of Compounds After Binding to the Human TASK-1 Channel via Two-Electrode Voltage Clamp Technique in Xenopus laevis Oocytes
Xenopus laevis oocytes were obtained from animals that had been anaesthetized with tricaine. Ovaries were treated with collagenase (1 mg/ml, Worthington, type II), stored in OR2 solution (82.5 mM NaCl, 2 mM KC1, 1 mM MgCl2, 5 mM HEPES; pH 7.4) for 120 min and then kept in the ND96 standard solution (96 mM NaCl, 2 mM KC1, 1.8 mM CaCl2, 1 mM MgCl2, 5 mM HEPES; pH 7.5) with additional sodium pyruvate (275 mg/l), theophylline (90 mg/1) and gentamicin (50 mg/1) at 18° C. hTASK-1 and hTASK-3 were subcloned into the pSGEM vector, and cRNA was produced after linearization with NHEI and in vitro transcription with T7 polymerase. Oocytes were injected individually with 5-20 ng of cRNA solution that encodes hTASK-1. Standard two-electrode voltage clamp recordings [Stühmer, Methods Enzymol. 207, 319-339 (1992)] were conducted at room temperature (21-22° C.) with a Turbo-TEC-10CD amplifier (NPI) as described above [Decher et al., FEBS Lett. 492, 84-89 (2001)]. The measurement interval was 2 kHz, and the data were filtered at 0.4 kHz. Substances were applied in a gravity-driven manner via the bath solution, using ND96. In summary, Xenopus laevis oocytes were selected as described above, injected with TASK-1 cRNA and subjected to an electrophysiological analysis via the two-electrode voltage clamp technique.
The TASK-1 channels were inhibited beforehand by a value of about 40% by administration of one of the compounds of the invention. The concentrations shown in Table 3 below were established here, which had been ascertained beforehand by determining the IC50 values in question. Subsequently, the restoration of the TASK-1-related membrane current was recorded in the voltage clamp over at least one hour. This restoration is caused by the washout of the compound in question from the TASK-1 channel
At least 6 oocytes were examined for every compound. The voltage clamp measurements took a total of at least 1.5 hours (administration of the inhibitor plus at least one subsequent hour of washout measurement).
On the technique in general: Two-electrode voltage clamp is typically applied to oocytes expressing channels or transporters.

The target of assay [2] is T2, human TASK-3 (Homo sapiens, UniProt Q9NPC2). Nature of the assay: Inhibition of recombinant TASK-3 in stably transfected CHO cells, KCl-induced depolarization, voltage-sensitive dye (B-2). Particulars: depolarization induced by 40 mM potassium chloride, some mean values from multiple determinations. Set-up: expressed in transfected cells; host or cells: stably transfected CHO cells. In outline:
(§1)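 Stably transfected CHO cells loaded with a voltage-sensitive membrane potential dye. Depolarization was induced with 40 mM KCl, and compound inhibition of it was read by fluorescence. IC50 is the concentration blocking half of the KCl-induced depolarization; some values are means of multiple independent determinations.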

Assay [3] has as its target T1, human TASK-1. Nature of the assay: Two-electrode voltage clamp analysis of human TASK-1 channel in Xenopus laevis oocytes (B-1). Set-up: expressed in transfected cells; host or cells: Xenopus laevis oocytes injected with cRNA. As to conditions: Xenopus laevis oocytes injected with TASK-1 cRNA, 21-22° C. The protocol: (§2) B-1. In Vitro Electrophysiological Analysis of the Human TASK-1 and TASK-3 Channels via Two-Electrode Voltage Clamp Technique in Xenopus laevis Oocytes
(§3) Xenopus laevis oocytes were selected as described elsewhere by way of illustration [Decher et al., FEBS Lett. 492, 84-89 (2001)]. Subsequently, the oocytes were injected with 0.5-5 ng of a cRNA solution coding for TASK-1 or TASK-3. For the electrophysiological analysis of the channel proteins expressed in the oocytes, the two-electrode voltage clamp technique [Stühmer, Methods Enzymol. 207, 319-339 (1992)] was used. The measurements were conducted as described [Decher et al., FEBS Lett. 492, 84-89 (2001)] at room temperature (21-22° C.) using a Turbo TEC 10CD amplifier (NPI), recorded at 2 kHz and filtered with 0.4 kHz. Substance administration was performed using a gravitation-driven perfusion system. Here, the oocyte is located in a measuring chamber and exposed to the solution stream of 10 ml/min The level in the measuring chamber is monitored and regulated by sucking off the solution using a peristaltic pump.

Assay [4] addresses T2, human TASK-3. Nature of the assay: Two-electrode voltage clamp analysis of human TASK-3 channel in Xenopus laevis oocytes (B-1). Set-up: expressed in transfected cells; host or cells: Xenopus laevis oocytes injected with cRNA. As to conditions: Xenopus laevis oocytes injected with TASK-3 cRNA, 21-22° C. The protocol: as §2, §3
Assay [5] addresses T1, human TASK-1. Nature of the assay: Inhibition of recombinant TASK-1 in stably transfected CHO cells, KCl-induced depolarization, voltage-sensitive dye (B-2). Also noted: expressed in transfected cells; host or cells: stably transfected CHO cells. Particulars: depolarization induced by 40 mM potassium chloride, some mean values from multiple determinations. In outline: as §1

T1 sequence (O14649 whole entry): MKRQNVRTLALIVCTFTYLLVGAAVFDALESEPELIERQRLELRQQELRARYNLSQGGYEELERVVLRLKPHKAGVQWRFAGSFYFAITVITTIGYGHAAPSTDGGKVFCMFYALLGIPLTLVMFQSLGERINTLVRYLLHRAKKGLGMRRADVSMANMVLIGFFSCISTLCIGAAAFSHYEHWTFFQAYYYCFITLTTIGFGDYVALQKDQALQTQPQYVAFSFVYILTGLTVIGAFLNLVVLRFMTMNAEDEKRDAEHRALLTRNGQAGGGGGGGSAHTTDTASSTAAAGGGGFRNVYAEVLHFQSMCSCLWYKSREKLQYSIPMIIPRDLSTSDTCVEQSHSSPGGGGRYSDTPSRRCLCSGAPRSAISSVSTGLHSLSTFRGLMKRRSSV
T2 sequence (Q9NPC2 whole entry): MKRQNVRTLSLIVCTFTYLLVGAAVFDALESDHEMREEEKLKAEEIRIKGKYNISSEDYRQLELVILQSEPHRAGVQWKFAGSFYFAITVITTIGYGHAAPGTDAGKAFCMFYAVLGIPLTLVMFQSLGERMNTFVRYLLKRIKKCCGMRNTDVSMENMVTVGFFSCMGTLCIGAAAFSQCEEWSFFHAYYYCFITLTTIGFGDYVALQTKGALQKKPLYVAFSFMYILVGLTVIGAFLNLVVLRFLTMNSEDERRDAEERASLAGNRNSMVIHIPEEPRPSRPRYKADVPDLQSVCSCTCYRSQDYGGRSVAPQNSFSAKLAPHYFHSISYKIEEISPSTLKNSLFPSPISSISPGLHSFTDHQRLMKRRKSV

For orientation: IC50 means the point on the concentration scale where inhibition reaches its midpoint. Regarding `COc1cccc(C(=O)N2CC3CCC2CN3Cc2c(-c3ccc(Cl)cn3)nc3ccccn23)n1` (single isomer, unassigned; enantiomer 1) [Example 26, (−)-(5-{[2-(5-Chloropyridin-2-yl)imidazo[1,2-a]pyridin-3-yl]methyl}-2,5-diazabicyclo[2.2.2]oct-2-yl)(6-methoxypyridin-2-yl)methanone (enantiomer 1)], at human TASK-1 [1], the Washout rate is on record as 17 % h^−1. Further, the concentration for half-maximal inhibition (IC50) amounted to 42 nM at human TASK-3 [2], 54 ± 16.1 nM on human TASK-1 [3], 12 ± 3.3 nM on human TASK-3 [4] and 690 nM at human TASK-1 [5].
